Data: patent US20050277190A1, “Pancreatic stem cells” (priority 2004, published 2005)
“Also recorded” adds a separate entry of the source. Ends that are not written are not given here.

Legend:
Format in all cases: cell-based, mouse
[1] = tested on: PSC spheres; assay: PSC sphere colony formation assay and serum-free passaging with BIO; conditions: BIO included during primary serum-free sphere formation and serum-free passaging; period of 5 months
From the text: 1) Using the standard PSC sphere colony formation assay, the (commercially available) compound, BIO ((2_Z,3_E)-6-Bromoindirubin-3_-oxime) has been included. […] The GSK-3α/β protein kinases have a critical role within the Wnt-signalling pathway, with their inhibition by BIO leading to an activation of the Wnt pathway. The Wnt pathway is involved with the specification/development of multiple tissues. With BIO inclusion during the primary serum-free sphere formation and subsequent serum-free passaging, PSC spheres can be passaged indefinitely. PSC spheres have been successfully passaged, currently up to the 9th passage over a period of 5 months. The number of sphere-forming cells and resultant clonal spheres expanded (over 30-fold) during this period.
Isolated islets and ductal tissue were then incubated with trypsin (Sigma) at 37° C. and triturated with a small-borehole siliconized pipette into a single cell suspension. Viable cells were counted using Trypan Blue (Sigma) exclusion and plated at 20 cells μl^−1 or less in defined serum-free medium (SFM)^63 containing B27 (Gibco-BRL), 10 ng ml^−1 FGF2 (Sigma), 2 μg ml^−1 heparin (Sigma), and 20 ng ml^−1 EGF (Sigma) for 7-14 DIV. […] Each well was scored after plating for the presence of a single cell. […]

[2] = tested on: YFP+ cells from islet- and ductal-derived PSC cultures; assay: [Ca2+]i imaging (Fura2) of RIP-YFP+ cells from differentiated PSC colonies; conditions: agent added on top of glucose; single YFP+ cells, islet- and ductal-derived PSC progeny
[3] = tested on: differentiated PSC colonies; assay: Insulin release by differentiated PSC colonies (radioimmunoassay); conditions: 1.5 hour incubation; for insulin release in response to high glucose plus agent: 20 mM glucose with 30 nM GLP-1, 10 mM TEA or 100 μM verapamil; for insulin release in response to agent alone: 20 mM glucose (HG) or 100 μM carbachol alone, relative to LG-KRB
Description: PSC colonies were pooled and differentiated (8 per well, 96-well Matrigel-coated plates) for 7 days as described. Twenty-four hours prior to secretion studies, the medium was changed to supplemented RPMI-1640 medium as outlined above. Differentiated PSC colonies were pre-incubated in low glucose (2.5 mM) KRB solution (LG-KRB) for 1 hour. The solution was changed to 150 μl of fresh LG-KRB and the cultures were incubated for 1.5 hours to establish the basal level of insulin release. […] Insulin was measured using an RIA kit (Linco). Insulin release during the experimental 1.5 hour incubation was compared to the level determined during the basal 1.5 hour incubation period for each individual well to obtain a percent change. The data are expressed relative to the percent change measured for the LG-KRB to LG-KRB alone condition.

Compound | effect of added agent on glucose-stimulated [Ca2+]i response [2] | insulin release in response to high glucose plus agent [3] | also measured
O=C1Nc2cc(Br)ccc2/C1=C1/Nc2ccccc2/C1=N\O [BIO, (2_Z,3_E)-6-Bromoindirubin-3_-oxime] | – | – | expansion of the number of sphere-forming cells and resultant clonal spheres [1]: over 30 fold
CC[N+](CC)(CC)CC [TEA, tetra ethyl ammonium] | augmented | augmentation of this release; also recorded: increased insulin secretion; also recorded: increased insulin release | –
C[N+](C)(C)CCOC(N)=O [carbachol] | – | – | insulin release in response to agent alone [3]: insulin release in response to carbachol; also recorded: secrete insulin in response to carbachol; insulin release in response to agent alone ([3]; listed as Carbachol): increased insulin release
COc1ccc(CCN(C)CCCC(C#N)(c2ccc(OC)c(OC)c2)C(C)C)cc1OC (centres unmarked) [verapamil] | – | abolishes glucose-stimulated insulin release to basal levels; also recorded: abolished the glucose-stimulated insulin release | –
glucagon-like peptide-1 (HAEGTFTSDVSSYLEGQAAKEFIAWLVKGR; ends and bridges not checked; UniProt P01275 98-127, looked up) [GLP-1, physiological secretagogue known to stimulate β-cells in a glucose-dependent manner] | augmented | augmentation of this release; also recorded: increased insulin secretion; also recorded: increased insulin release | –
